Data reported in ChEMBL document CHEMBL4483862, “Open-source discovery of chemical leads for next-generation chemoprotective antimalarials” (2018).

System: Plasmodium berghei
Experiment: Luciferase/luciferin-expressing antifolate-resistant parasites were used to infect a culture of HepG2 cells that were pre-incubated with compounds. Infected hepatocytes emit light due to the luciferase reaction. Assay results are presented as the percent inhibition of light emission compared to control. […]
Assay type: functional
Conditions: sporozoite; for IC50: read-out: LUCIFERASE INFECTION ASSAY - IC50; for IC90: read-out: LUCIFERASE INFECTION ASSAY - IC90

SMILES | IC50 | IC90
Cc1c(Cl)cn2c(=O)cc(CN3CCN(c4ccccc4)CC3)nc2c1Cl | > 10 µM | > 10 µM
Cc1cc(C)c(-c2csc(NC(=O)c3nnc(O)c4ccccc34)n2)c(C)c1 | 3.82 µM | 5.46 µM
O=C1Nc2ccc([N+](=O)[O-])cc2C12NNc1ccccc1O2 (centres undefined) | > 10 µM | > 10 µM
CC(C)Cn1c(-c2cc([N+](=O)[O-])ccc2Cl)nc2c1c(=O)[nH]c(=O)n2Cc1ccccc1 | > 10 µM | > 10 µM
CCOC(=O)C1=C(NC(=O)Nc2ccc(Cl)c(Cl)c2)Nc2ccccc2N=C1CC | > 10 µM | > 10 µM
C=CCn1c(SCc2cc([N+](=O)[O-])cc3c2OCOC3)nc2cc(C(=O)O)ccc2c1=O | 1.82 µM | 6.97 µM
CN1/C(=C\C(=O)C[n+]2ccc3ccccc3c2)C(C)(C)c2ccccc21 | 1.05 µM | 1.83 µM
CCOC(=O)c1c(-c2ccccc2)csc1NC(=O)Cn1ncc(Cl)c(Cl)c1=O | 3.35 µM | 4.1 µM
COc1cc(OC)c(NC(=O)c2cc3ccccc3cc2OCC(=O)NC(C)c2ccccc2)cc1Cl (centres undefined) | > 10 µM | > 10 µM
Cc1ccc(-n2c(SCc3nc4ccccc4c(=O)o3)nnc2-c2ccccc2)cc1C | > 10 µM | > 10 µM
CC(Sc1nnc(-c2ccc(C(C)(C)C)cc2)n1Cc1ccco1)C(=O)Nc1ccc(Cl)cn1 (centres undefined) | > 10 µM | > 10 µM
Cn1c(N)c(C(=O)COC(=O)c2cc(-c3ccccc3)nc3ccc(Br)cc23)c(=O)n(C)c1=O | > 10 µM | > 10 µM
Cc1c(-c2cc(-c3ccc(Cl)cc3)nc3ccccc23)oc2ccc(F)cc2c1=O | > 10 µM | > 10 µM
CCC(NCC(O)COc1ccccc1C(C)C)C12CC3CC(CC(C3)C1)C2 (centres undefined) | > 10 µM | > 10 µM
COc1ccc(-c2nn(-c3ccccc3)cc2/C=C/C(=O)Nc2nc3c(C)cccc3s2)cc1OC | 6.8 µM | > 10 µM
Cc1nn(Cc2ccccc2Cl)c(Cl)c1/C=C/C(=O)OC(C)C(=O)N1CCCc2ccccc21 (centres undefined) | > 10 µM | > 10 µM
Cc1sc(NC(=O)Cc2coc3cc4c(cc23)CCC4)nc1-c1ccc(Cl)cc1 | > 10 µM | > 10 µM
O=C(/C=C/c1cccc(NC(=O)c2ccccc2Cl)c1)c1ccc2c(c1)-c1ccccc1C2 | > 10 µM | > 10 µM
CC(C)CCNC(=O)NC(=O)CSc1nn(-c2ccc(F)cc2)c(=S)s1 | > 10 µM | > 10 µM
S=c1[nH]c2ccccc2n1C1CCCCC1 | > 10 µM | > 10 µM
CC(C)[C@H](NC(=O)c1ccc(C(C)(C)C)cc1)C(=O)Nc1nc2ccccc2[nH]1 | > 10 µM | > 10 µM
Cc1cc(=O)oc2cc(OCC(=O)OCC(=O)c3c(-c4ccccc4)[nH]c4ccccc34)ccc12 | 1.85 µM | 7.83 µM
Cc1ccc2cc(COC(=O)c3cc4c(s3)CCC(C)C4)c(Cl)nc2c1 (centres undefined) | > 10 µM | > 10 µM
Cc1ccc(-c2nnc(SCC(=O)N3N=C(c4ccc5ccccc5c4)CC3c3ccccc3)[nH]2)cc1 (centres undefined) | > 10 µM | > 10 µM
COc1ccc(-n2c(C)cc(C(=O)COC(=O)[C@@H](NS(=O)(=O)c3ccc4c(c3)OCCO4)C(C)C)c2C)cc1 | > 10 µM | > 10 µM
COC(=O)c1sc(NC(=O)COC(=O)C2Cc3ccccc3CN2S(=O)(=O)c2cccs2)c(C(=O)OC)c1C (centres undefined) | > 10 µM | > 10 µM

SMILES | IC50 | IC90
Cc1cc(NC(=O)CSc2ncc(-c3ccc(Cl)cc3)n2-c2ccccc2C)no1 | 9.42 µM | > 10 µM
CCOc1ccc(-n2c(SCC(=O)c3c(N)n(C)c(=O)n(C)c3=O)nnc2-c2ccccc2Cl)cc1 | 3.28 µM | 3.67 µM
CSc1nn(-c2ccc(C(=O)OCc3c(C)cc(C(C)(C)C)cc3C)cc2)c(=S)s1 | > 10 µM | > 10 µM
O=C(COC(=O)COc1ccc2c3c(c(=O)oc2c1)CCC3)Nc1ccc(F)c(F)c1F | > 10 µM | > 10 µM
Cc1nn(-c2ccc(F)cc2)c(C)c1/C=C/C(=O)OCC(=O)Nc1cc(S(=O)(=O)N2CCOCC2)ccc1Cl | > 10 µM | > 10 µM
CCCCN1C(=O)c2ccc(C(=O)C(C#N)c3nc4ccccc4[nH]3)cc2C1=O (centres undefined) | > 10 µM | > 10 µM
Cc1cnc(NC(=O)c2ccc(Cl)c(S(=O)(=O)N(Cc3ccccc3)c3ccccc3Cl)c2)s1 | > 10 µM | > 10 µM
CCOC(=O)c1c(C)[nH]c(C(=O)COC(=O)c2nc(-c3ccccc3)n(-c3ccccc3)n2)c1C | > 10 µM | > 10 µM
CCc1c(C)sc2nc(SCC(=O)Nc3cc(C)on3)n(-c3ccc(O)cc3C)c(=O)c12 | 3.89 µM | 8.83 µM
O=C(NC1CCCc2ccccc21)c1oc2ccccc2c1CSc1nccs1 (centres undefined) | 6.48 µM | > 10 µM
Cc1cc(C(=O)CSc2nc3cc([N+](=O)[O-])ccc3n2-c2ccccc2)c(C)n1Cc1ccco1 | > 10 µM | > 10 µM
O=C(COC(=O)/C=C/c1cn(-c2ccccc2)nc1-c1ccc(Cl)cc1)NC(=O)NC1CCCC1 | 9.03 µM | > 10 µM
Cc1cc(C(=O)C(C)OC(=O)c2ccc(S(C)(=O)=O)c([N+](=O)[O-])c2)c(C)n1-c1ccc(Cl)cc1 (centres undefined) | > 10 µM | > 10 µM
CCCCNS(=O)(=O)c1ccc2nc(SCc3cccc(OC)c3)[nH]c2c1 | > 10 µM | > 10 µM
Cc1ccc(C(C)(C)C)cc1S(=O)(=O)Nc1ccc(C(=O)OC(C)c2nc(=O)c3c(C)c(C)sc3[nH]2)cc1 (centres undefined) | > 10 µM | > 10 µM
Cc1noc(C)c1COc1ccc(C(=O)OCC(=O)NC(C)C23CC4CC(CC(C4)C2)C3)cc1 (centres undefined) | > 10 µM | > 10 µM
COc1ccc(NC(=O)C2C(=S)NC(=N)C(C#N)C2c2ccc(Cl)cc2)cc1 (centres undefined) | > 10 µM | > 10 µM
Cc1ccccc1C(=O)N1CCC(C(=O)Oc2ccc(Cl)c3ccccc23)CC1 | > 10 µM | > 10 µM
COc1ccc(-n2c(C)cc(/C=C(\C#N)C(=O)OCC(=O)Nc3ccc(Cl)c(C(F)(F)F)c3)c2C)cc1 | > 10 µM | > 10 µM
CCC(C)c1ccc(-c2cc(C(=O)OCC(=O)N3c4ccccc4NC(=O)C3(C)C)c3ccccc3n2)cc1 (centres undefined) | 8.86 µM | > 10 µM
Cn1c(N)c(C(=O)COC(=O)c2oc3ccccc3c2CSC2CCCCC2)c(=O)n(C)c1=O | > 10 µM | > 10 µM
COc1ccc(-n2c(C)cc(C(=O)CSc3nc4c(n3-c3ccccc3)CCCC4)c2C)cc1 | > 10 µM | > 10 µM
O=C(Cc1csc(-c2ccccc2)n1)Nc1nc2c(s1)CCCC2 | > 10 µM | > 10 µM
CCc1c(C)sc2nc(SCc3nc4ccccc4s3)n(-c3ccc(O)cc3C)c(=O)c12 | > 10 µM | > 10 µM
CCn1c(C)nc2cc(C(=O)NNC(=O)c3cc(=O)[nH]c4ccccc34)ccc21 | > 10 µM | > 10 µM
C=CCN(c1ccccc1)S(=O)(=O)c1cc(C(=O)NCc2ccc3c(c2)OCO3)ccc1Cl | > 10 µM | > 10 µM

SMILES | IC50 | IC90
CCOC(=O)C1=C(CSc2nc(-c3ccc(C)cc3)c(-c3ccc(C)cc3)[nH]2)NC(=O)NC1C (centres undefined) | > 10 µM | > 10 µM
CC(C)c1ccc(N(C(=O)CC(c2ccccc2)c2ccccc2)c2nc3ccccc3s2)cc1 | > 10 µM | > 10 µM
Cc1nnnn1/C(=C\c1ccccc1)C(=O)OCCOc1ccccc1Cl | > 10 µM | > 10 µM
O=C(/C=C/c1cn(-c2ccccc2)nc1-c1ccc(F)cc1)NCC1(N2CCCCC2)CCCCC1 | > 10 µM | > 10 µM
COc1ccc(/C=C(\C#N)c2n[nH]c(=O)c3ccccc23)cc1 | 4.17 µM | > 10 µM
CCCCn1c(SCC(=O)Nc2cc(C(F)(F)F)ccc2N2CCOCC2)nc2ccccc21 | > 10 µM | > 10 µM
CC(C)(c1ccccc1)c1ccc(OCC(O)CNCCSc2ccc(Br)cc2)cc1 (centres undefined) | > 10 µM | > 10 µM
CC(C)c1nc(-c2c(N)n(Cc3ccccc3)c(=O)n(C)c2=O)sc1C(=O)c1cc(F)ccc1F | 9.55 µM | > 10 µM
Cc1ccc(S(=O)(=O)N(C)Cc2ccc(-c3nnc4n3-c3ccccc3SC4)cc2)cc1 | 3.08 µM | > 10 µM
CCN(c1ccccc1)S(=O)(=O)c1ccc(C(=O)N2CCN(c3cccc(C)c3C)CC2)cc1 | 4.15 µM | 5.07 µM
COc1ccc(-c2csc(NC(=O)c3cc4cc5ccc(OC)cc5nc4s3)n2)cc1 | > 10 µM | > 10 µM
O=C(O)C1CC=CCC1C(=O)NN=c1nc[nH]c2ccccc12 (centres undefined) | > 10 µM | > 10 µM
O=C(CCN1c2ccccc2Sc2ccccc21)N1CCCS/C1=N\c1ccccc1 | > 10 µM | > 10 µM
CSc1ccc(/C=C2\SC(=O)N(CCNC(=O)c3nc4nccc(C)n4n3)C2=O)cc1 | > 10 µM | > 10 µM
O=C(Nc1nc(-c2ccccn2)cs1)c1cc([N+](=O)[O-])ccc1N1CCC(Cc2ccccc2)CC1 | > 10 µM | > 10 µM
CCCCn1nc(C(=O)Nc2cc(S(=O)(=O)N(CC)CC)ccc2N2CCOCC2)c2ccccc2c1=O | > 10 µM | > 10 µM
Clc1nc2ccccc2cc1/C=N/C1CCCCC1 | > 10 µM | > 10 µM
CCNC(=S)N/N=C1\C(=O)Nc2ccc(C(C)C)cc21 | 4.21 µM | 7.94 µM
CC(C)(C)C(=O)/C=c1\s/c(=C\c2ccsc2)c(=O)n1CC(=O)N1CCc2ccccc21 | > 10 µM | > 10 µM
CCOC(C(=O)Nc1ccccc1Cc1ccccc1)(c1ccccc1)c1ccccc1 | > 10 µM | > 10 µM
O=c1c(Cl)c(Cl)cnn1CCOc1cccc(Br)c1 | > 10 µM | > 10 µM
CCN(c1ccccc1)S(=O)(=O)c1ccc(Cl)c(NC(=O)C2(c3ccc(Cl)cc3)CCCC2)c1 | > 10 µM | > 10 µM
COc1ccc(Cl)cc1NC(=O)CN(C)c1nc(-c2cccnc2)nc2sc3c(c12)CCCC3 | > 10 µM | > 10 µM
OC(CNC1CCCc2ccccc21)COC(c1ccc(F)cc1)c1ccc(F)cc1 (centres undefined) | > 10 µM | > 10 µM
COc1ccccc1NS(=O)(=O)c1ccc2oc(Nc3ccc(Cl)c(C(F)(F)F)c3)nc2c1 | > 10 µM | > 10 µM
